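48-hour exposure; five concentrations; linearly interpolated endpoints. GI50 is the concentration that inhibits growth by half. TGI is the concentration that stops growth completely.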
Experiments:
Assay in all cases: NCI tumour cell line growth inhibition, 48 h; in the data active means GI50 below about 0.43 µM; inactive means the rest
[1] = tested on: NCI-H226 lung
[2] = tested on: NCI-H23 lung
[3] = tested on: NCI-H460 lung
[4] = tested on: NCI-H522 lung
[5] = tested on: OVCAR-3 ovarian
[6] = tested on: OVCAR-4 ovarian
[7] = tested on: OVCAR-5 ovarian
[8] = tested on: OVCAR-8 ovarian
[9] = tested on: PC-3 prostate
[10] = tested on: RXF 393 renal
[11] = tested on: SF-268 CNS
[12] = tested on: SF-295 CNS
[13] = tested on: SF-539 CNS
[14] = tested on: SK-MEL-2 melanoma
[15] = tested on: SK-MEL-28 melanoma
[16] = tested on: SK-OV-3 ovarian
[17] = tested on: SN12C renal
[18] = tested on: SNB-19 CNS
[19] = tested on: SNB-75 CNS
[20] = tested on: SR leukemia
[21] = tested on: SW-620 colon
[22] = tested on: T-47D breast
[23] = tested on: TK-10 renal
[24] = tested on: U251 CNS
[25] = tested on: UACC-257 melanoma
[26] = tested on: UACC-62 melanoma
[27] = tested on: UO-31 renal

COc1ccccc1N1CCN(C2=NN=C(c3cccc(Cl)c3)c3ccccc3C2)CC1
> 45.4 µM: TGI [14]
> 100 µM: TGI [2] | TGI [6] | TGI [8] | TGI [11] | TGI [15] | TGI [17] | TGI [18] | TGI [20] | TGI [21] | TGI [22] | TGI [24] | TGI [25] | TGI [26] | TGI [27]
0.847 µM: TGI [13]
> 36.3 µM: TGI [1]
2.76 µM: TGI [10]
> 43.2 µM: TGI [23]
inactive: GI50 [2] 0.571 µM | GI50 [6] 1.19 µM | GI50 [7] 0.498 µM | GI50 [8] 0.438 µM | GI50 [9] 0.443 µM | GI50 [11] 0.566 µM | GI50 [14] 0.743 µM | GI50 [15] 2.47 µM | GI50 [16] 0.637 µM | GI50 [17] 0.474 µM | GI50 [19] 0.491 µM | GI50 [21] 0.439 µM | GI50 [22] 1.13 µM | GI50 [23] 2.32 µM | GI50 [25] 2.37 µM | GI50 [26] 0.509 µM | GI50 [27] 0.708 µM
20.3 µM: TGI [19]
3.44 µM: TGI [12]
97.4 µM: TGI [16]
> 37.2 µM: TGI [7]
active: GI50 [3] 0.351 µM | GI50 [4] 0.27 µM | GI50 [5] 0.282 µM | GI50 [10] 0.27 µM | GI50 [12] 0.334 µM | GI50 [13] 0.277 µM | GI50 [18] 0.42 µM | GI50 [20] 0.26 µM | GI50 [24] 0.383 µM
1.94 µM: TGI [3]
> 33.9 µM: TGI [9]
0.793 µM: TGI [5]
